Experimental data taken from patent US10308642B2, “Anti-hepatitis B virus agent” (FUJIFILM Toyama Chemical Co., Ltd., priority 2015, dated 2019).
Where two headings read alike, the source gives them in different places.

Key:
HBV [1] = assay: Anti-HBV assay in HepG2.2.15 cells (HBV DNA by real-time PCR, HBsAg by chemiluminescent enzyme immunoassay in culture supernatant); assay type: cell-based; details: Hepatitis B virus, 144 h, 6 days treatment
Method: The anti-HBV activity of compounds 1 to 16 was evaluated as follows by using HepG2.2.15 cells (Proc. Natl. Acad. Sci. USA, 84, 1005-1009, 1987), which are obtained by introducing the HBV genome into hepatoblastoma cell line, HepG2, and persistently produce the virus.
The following was used as a medium: DMEM/F-12,GlutaMAX(manufactured by Invitrogen)+5 μg/mL insulin (manufactured by Wako)+1% penicillin/streptomycin(manufactured by Sigma)+10 mmol/L HEPES(manufactured by Sigma)+50 μmol/L hydrocortisone(manufactured by Sigma)+10% FBS
A mixture of each test compound with dimethyl sulfoxide (DMSO) was added to the medium to obtain a final concentration of DMSO of 1% (v/v), and thus, test solutions containing the test compound in various concentrations were prepared. In addition, a test solution obtained by adding DMSO alone to the medium to obtain a final concentration of 1% (v/v) was prepared as a control without drug.
(1) The HepG2.2.15 cells were suspended in the medium and prepared a cell suspension at 1.5×10^5 cells/mL. The suspension was seeded in a 96-well microtiter plate (100 μL/well) and the plate was incubated in a 5% CO2 incubator at 37° C. for 1 day.
(2) After removing the culture supernatant, the cells were washed twice with PBS(−) (100 μL/well) and then once with the medium (100 μL/well).
(3) Each test solution was added to the plate (100 μL/well), and the plate was incubated in a 5% CO2 incubator at 37° C. for 3 days.
(4) After removing the culture supernatant, the test solution was added to the plate again (100 μL/well) and the plate was incubated in a 5% CO2 incubator at 37° C. for 3 days.
(5) The culture supernatant was collected and treated with a mixture of Buffer AL (manufactured by QIAGEN) and Proteinase K (manufactured by Invitrogen). The amount of HBV DNA in the solution was quantified by real-time PCR. In addition, the amount of HBsAg (hepatitis B surface antigen) in the culture supernatant was quantified by chemiluminescent enzyme immunoassay using a Lumipulse HBsAg-HQ (manufactured by Fujirebio Inc.). The relative viral load (%) of a well with the compound to a well without the compound was calculated. An IC50 of each compound was calculated using the FORECAST function (linear regression method) of Microsoft Excel 2007 by plotting the logarithm of the concentration against the relative viral load as a real number.

HBV [2] = assay: Anti-HBV assay in PXB-cells (fresh human hepatocytes from PXB mouse infected with HBV genotype AeUS); assay type: cell-based, hepatitis B virus (HBV); details: 10 μmol/L
Method: The anti-HBV activity of compound 8 was evaluated as follows by using fresh human hepatocyte (The PXB-cells were produced by PhenixBio Co., Ltd.) derived from a PXB mouse (a chimeric mouse with human hepatocyte).
The following was used as a medium:
500 mL DMEM (manufactured by Sigma)+0.25 μg/mL insulin (manufactured by Wako)+1% penicillin/streptomycin. (manufactured by Sigma)+20 mmol/L HEPES (manufactured by Sigma)+15 μg/mL L-proline (manufactured by Sigma)+50 nmol/L dexamethasone (manufactured by Sigma)+5 ng/mL EGF (manufactured by Peprotech)+0.1 mmol/L ascorbic acid 2-phosphate (manufactured by Wako)+10% FBS+2% DMSO
Compound 8 was further added to the medium to prepare a 10 μmol/L test solution.
(1) The PXB-cells seeded at a 2.1×10^5 cells/cm^2 in a 48-well microliter plate were incubated in a 5% CO2 incubator at 37° C. for 5 days.
(2) HBV derived from PXB mouse serum (genotype AeUS) was added to the medium supplemented with 4% PEG-8000. The PXB cells were infected with this solution at about 10 copies/cell (250 μL/well) and the plate was incubated in a 5% CO2 incubator at 37° C. for 1 day.
(3) After the culture supernatant had been removed, the cells were washed three times with DMEM supplemented with 10% FBS and 1% penicillin/streptomycin. The medium was added to the plate (250 μL/well) and the plate was incubated in a 5% CO2 incubator at 37° C. for 1 day.
(4) After removing the culture supernatant, the cells were washed three times with DMEM supplemented with 10% FBS and 1% penicillin/streptomycin. […]
(11) The collected culture supernatant on day 32 post infection was purified using a QIAamp DNA Blood Mini Kit (manufactured by QIAGEN) and the amount of HVB DNA was quantified by real-time PCR. In addition, the amount of HBsAg (hepatitis B surface antigen) in the culture supernatant was quantified by chemiluminescent enzyme immunoassay using a Lumipulse HBsAg-HQ (manufactured by Fujirebio Inc.). The relative viral load (%) of a well with the compound to a well without the compound was calculated.

[3] = HBV DNA in culture supernatant, real-time PCR, read-out: IC50 (μM) HBV-DNA
[4] = HBsAg in culture supernatant, chemiluminescent enzyme immunoassay, read-out: IC50 (μM) HBsAg
[5] = culture supernatant on day 32 post infection, relative to well without compound

Row | Compound | IC50 (HBV [1]; [3]) [µM] | IC50 (HBV [1]; [4]) [µM] | relative viral load with respect to the amount of HBV DNA (HBV [2]; [5]) [%] | relative viral load with respect to the amount of HBsAg (HBV [2]; [5]) [%] | anti-HBV activity (HBV [2]; statement in words)
1 | O=C(O)c1cn(-c2ccc(F)cc2)c(-c2ccc(N3CCCC3)cc2)cc1=O [Compound 1] | 0.051 | 1.1 |  |  | 
2 | O=C(O)c1cn(-c2ccc(F)cc2)c(-c2sccc2-c2ccc([N+](=O)[O-])cc2)cc1=O [Compound 2] | 0.16 | 0.79 |  |  | 
3 | CN(C)c1ccc(-c2cc(=O)c(C(=O)O)cn2-c2cccc(F)c2)cc1 [Compound 3] | 0.86 | 5.7 |  |  | 
4 | O=C(O)c1cn(-c2ccc(F)cc2F)c(-c2ccc(N3CCCC3)cc2)cc1=O [Compound 4] | 0.088 | 2.1 |  |  | 
5 | COc1ccc(-n2cc(C(=O)O)c(=O)cc2-c2ccc(N(C)C)cc2)cc1 [Compound 5] | 0.33 | 4.6 |  |  | 
6 | O=C(O)c1cn(-c2ccc(F)cc2)c(-c2cc3ccccc3s2)cc1=O [Compound 6] | 1.1 | 5.8 |  |  | 
7 | CN(C)c1ccc(-c2cc(=O)c(C(=O)O)cn2-c2ccccc2F)cc1 [Compound 7] | 1.1 | 4.6 |  |  | 
8 | CN(C)c1ccc(-c2cc(=O)c(C(=O)O)cn2-c2ccc3c(c2)OCO3)cc1 [Compound 8] | 0.25 | 1.2 | 16 | 29 | excellent anti-HBV activity
9 | O=C(O)c1cn(-c2ccc(F)cc2F)c(-c2cc3ccccc3s2)cc1=O [Compound 9] | 0.23 | 3.6 |  |  | 
10 | CN(C)c1ccc(-c2cc(=O)c(C(=O)O)cn2-c2ccccc2O)cc1 [Compound 10] | 2.1 | 6.9 |  |  | 
11 | Cc1cc(-n2cc(C(=O)O)c(=O)cc2-c2ccc(N(C)C)cc2)ccc1O [Compound 11] | 0.8 | 3.7 |  |  | 
12 | COc1ccc(-n2cc(C(=O)O)c(=O)cc2-c2ccc(N(C)C)cc2)c(F)c1 [Compound 12] | 1.4 | 4.9 |  |  | 
13 | Cc1cc(O)ccc1-n1cc(C(=O)O)c(=O)cc1C1CCC(Br)C(Br)C1 (centres unmarked) [Compound 13] | 0.49 | 1.8 |  |  | 
14 | O=C(O)c1cn(-c2ccc(F)cc2)c(-c2ccc(-c3cccs3)cc2)cc1=O [Compound 14] | 0.91 | 4.2 |  |  | 
15 | CN(C)c1ccc(-c2cc(=O)c(C(=O)O)cn2-c2cc(Cl)c(O)c(Cl)c2)cc1 [Compound 15] | 4.5 | 11 |  |  | 
16 | CNc1ccc(-c2cc(=O)c(C(=O)O)cn2-c2ccc(F)cc2)cc1 [Compound 16] | 7.9 | 35 |  |  | 
